# Test results published in patent US4542140A, “Pyridinyl substituted ketenemercaptal derivatives” (American Home Products Corporation, priority 1983, dated 1985).
# What was measured:
# [1] = tested on: spontaneous gastric acid secretion; assay: inhibition of spontaneous gastric acid secretion in cannulated rats; format: in vivo, Male albino Sprague Dawley rats
# Method: Male albino Sprague Dawley rats (200-300 g), purchased from Canadian Breeding Laboratories, were employed. Two gastric cannulas were implanted surgically in each rat as described by L. E. Borella and F. Herr, Gastroenterology, 61, 345 (1971). The rats were used two to three weeks after the operation at a time when their food intake and weight gain were similar to the food intake and weight gain of unoperated litter mates. Before testing, the rats were deprived of food for 18 hours, but they had available a solution of 0.2% sodium chloride in 5% glucose for drinking ad libitum. Prior to each experiment, the plugs of the stomach cannulas of each rat were removed and the debris present in the stomach was flushed out with tepid saline passed through the cannulas. Thereafter, the lumen of the stomach was continuously perfused with saline introduced into the stomach through the forestomach cannula at a rate of 0.8-1.2 ml/min. The stomach perfusate flowing out of the antrum cannula was collected in 60 minutes intervals and the total acid in each collection was titrated with 0.05N sodium hydroxide employing phenol red as an indicator. After a period of acclimatization of about 60 to 90 minutes, the acid output values were recorded. On the basis of the hourly acid output, the rats were divided into equal groups so that the average acid output of all groups was similar. Saline (vehicle) or saline suspensions or solutions of the test compounds were administered intragastrically (i.g.) through the forestomach cannula, after having closed the antral cannula. During the one hour absorption period, the stomachs of the rats were not perfused. After the absorption period, perfusion of the stomachs was resumed, and the perfusates were collected hourly for three hours. The average post-treatment hourly acid outputs of the test compound groups were compared to that of the saline group and the percent inhibition of acid output was calculated. Multiple statistical comparisons between groups was done using Dunnet's t test, C. W. Dunnet, Journal of American Statistical Association, 50, 1096 (1955).
# [2] = tested on: gastric lesions induced by absolute alcohol; assay: gastric lesions induced in rats by absolute alcohol; format: in vivo, male albino rats (Sprague-Dawley); details: i.g., 30 minutes before absolute ethanol
# Method: More explicitly exemplified, the beneficial effects were evaluated as follows: food was withheld from male albino rats (180-220 g, Sprague-Dawley, Canadian Breeding Laboratories) for 18 to 19 hours, but water was freely available. Test compounds were administered intragastrically (i.g.) by stomach gavage, 30 minutes before absolute ethanol. The absolute ethanol (one milliliter) also was administered by gavage. One hour after the alcohol treatment, the rats were killed and their stomachs removed for observation. Clotted blood was removed from the surface of the mucosa, and the macroscopic lesions counted. The average scores of the treatment groups were compared individually to that of the control group and percent inhibitions of lesion formation calculated. The data was analyzed statistically according to Dunnett's t test for multiple comparisons between groups.
# The results obtained when 2-cyano-3-(methylthio)-3-[[3-pyridinyl)-methyl]thio]-2-propenoic acid methyl ester, described in example 1, was tested according to the previous method is as follows.
# [3] = 50 mg/kg/i.g., tested as hydrochloric acid addition salt
compound,measurement,setting,value
"COC(=O)C(C#N)=C(SC)SCc1ccc[n+]([O-])c1 [Example 2, 2-Cyano-3-(methylthio)-3-[[(3-pyridinyl)methyl]thio]-2-propenoic Acid Methyl Ester N-oxide]",Percent Inhibition of Acid Output,[1]; 25 mg/kg/i.g.,60%
"CSC(SCc1cccnc1)=C(C#N)C(N)=O [Example 12, 2-Cyano-3-(methylthio)-3-[[(3-pyridinyl)methyl]thio]-2-propenamide]",Percent Inhibition of Acid Output,[1]; 25 mg/kg/i.g.,27%
"CSC(SCc1ccncc1)=C(C#N)C(N)=O [Example 13, 2-Cyano-3-(methylthio)-3-[[(4-pyridinyl)methyl]thio]-2-propenamide]",Percent Inhibition of Acid Output,[1]; 50 mg/kg/i.g.,59%
"COC(=O)C(C#N)=C(SC)Sc1ccnnc1C [Example 3, 2-cyano-3-[(3-methyl-4-pyridazinyl)thio]-3-(methylthio)-2-propenoic acid methyl ester]",Percent Inhibition of Acid Output,[1]; [3],90%
"COC(=O)C(C#N)=C(SCc1cccnc1)SCc1cccnc1 [1 (R^2 = 3-pyridinylmethyl thio), 2-cyano-3,3-bis[[(3-pyridinyl)methyl]thio]-2-propenoic acid methyl ester]",Percent Inhibition of Acid Output,[1]; 25 mg/kg/i.g.,38%
"COC(=O)C(C#N)=C(SC)SCc1cccnc1 [Example 1, 2-Cyano-3-(methylthio)-3-[[(3-pyridinyl)methyl]thio]-2-propenoic Acid Methyl Ester]",Percent Inhibition of Acid Output,[1]; 25 mg/kg/i.g.,85%
same,"Gastric Ulcers Formed, % Inhibition",[2]; 5 mg/kg,61%
same,"Gastric Ulcers Formed, Score (mean ± S.E.)",[2]; 5 mg/kg,6.7 ± 2.2
same,"Gastric Ulcers Formed, % Inhibition",[2]; 10 mg/kg,100%
same,"Gastric Ulcers Formed, Score (mean ± S.E.)",[2]; 10 mg/kg,0
"COC(=O)C(C#N)=C(SC)SCc1cnccn1 [Example 4, 2-cyano-3-(methylthio)-3-[[(3-pyrazinyl)methyl]-thio]-2-propenoic acid methyl ester]",Percent Inhibition of Acid Output,[1]; [3],88%
